Broadly, the Ki is a measure of affinity in units of concentration, obtained from inhibition or displacement. The low end stands for higher affinity, the high end for lower affinity.

Where two headings read alike, the source gives them in different places.

Test [1] concerns the target mGluR5 (allosteric site, [3H]MPEP) (Homo sapiens, UniProt P41594). In words: [3H]MPEP radioligand filtration binding assay on membrane homogenates. Particulars: 5 nM [3H]MPEP; Ki from IC50 by Cheng and Prusoff equation. As to the method:
Binding assays were performed as described in [J. A. O'Brien et al. Mol. Pharmacol., 2003, 64, 731-740] with slight modifications. Briefly, after thawing, the membrane homogenates were resuspended in 50 mM Tris-HCl, 0.9% NaCl binding buffer at pH 7.4 to a final assay concentration of 40 μg protein/well for [^3H]2-methyl-6-phenylethynyl-pyridine ([^3H] MPEP) (American Radiolabeled Chemicals, Inc., St. Louis, Mo.) filtration binding. Incubations included 5 nM [^3H] MPEP, membranes and either buffer or varying concentrations of compound. Samples were incubated for 60 min at room temperature with shaking. Non-specific binding was defined with 10 μM MPEP. After incubation, samples were filtered over a GF/C filter (presoaked in 0.25% polyethyleneimine (PEI)) and then washed 4 times using a Tomtec® Harvester 96® Mach III cell harvester (Tomtec, Hamden, Conn.) with 0.5 mL ice-cold 50 mM Tris-HCl (pH 7.4).
IC50 values were derived from the inhibition curve and Ki values were calculated according to the Cheng and Prusoff equation of Ki=IC50/(1+[L]/Kd) described in [Y. Cheng and W. H. Prusoff Biochem. Pharmacol. 1973, 22, 3099-3108] where [L] is the concentration of radioligand and Kd is its dissociation constant at the receptor, derived from the saturation isotherm.

For test [2], the target named is T1, rat metabotropic glutamate receptor 5 (rmGluR5) (Rattus norvegicus, UniProt P31424).
T1 construct: expressed in transfected cells
Nature of the test: Calcium mobilization (FLIPR) assay for negative allosteric modulation, EC80 glutamate, rmGluR5 in HEK 293. It counts as cell-based. Particulars: HEK293; rmGluR5, inhibition of EC80 glutamate response; read-out: FLIPR maximum inhibition. In a few lines: (§1)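 Stably transfected HEK 293 cells, Fluo-4-loaded, stimulated with EC80 glutamate plus test compound in HBSS/20 mM HEPES pH 7.4 with probenecid; FLIPR fluorescence read over 3 min at room temperature. Basal-subtracted maximum fluorescence change fitted by Hill equation; negative modulation seen as concentration-dependent inhibition of the EC80 response.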
In general terms: Calcium flux is commonly read through the fluorescence of an indicator in the cells.

The test system of a further test is male CD1 mice. Nature of the test: Mouse marble burying (mMB) assay. To be noted: 30 mpk (sc), FIG. 1. It counts as in vivo. The text has this:
More specifically for the mMB testing, adult, male CD1 mice (Charles River Laboratories (Kingston, N.Y.)), weighing 25 to 30 g, were used. All animals were group-housed in a standard colony room with a 12:12 light/dark cycle (lights on at 6:00 am) for at least one week prior to testing. Food and water were provided ad libitum. Animals were weighed, tail marked, and randomly assigned to treatment groups before testing.
For each test, sixty minutes after the injection of vehicle or test compound, or 30 min after injection of the positive control, buspirone, mice were individually placed into test cages containing 1.5 in of Aspen bedding (PWI brand) and two rows of 10 marbles (20 marbles per test cage total). Filter tops were used to cover each test cage. Thirty minutes later, mice were removed from test cages and returned to their home cages. The number of fully visible marbles (less than ⅔ covered with bedding) were counted and subtracted from 20 to arrive at the number of marbles buried. Twelve mice were tested per group.
Testing included multiple tests with each test performed to evaluate buspirone hydrochloride (BUS; Sigma Aldrich) (positive control) and/or a compound of formula (I). […] Doses were measured in mg drug (salt form) per kg body weight. Data was analyzed using one-way ANOVA with post-hoc Dunnett's test.

Test [3] relates to Male Rj: Wistar (Hans) rats. Nature of the test: Vogel Conflict Test (punished drinking). It counts as in vivo. Particulars: rat. The method, then:
The “Vogel Conflict Test” as described by Vogel et al. [Psychopharmacologia, 1971, 21, 1-7] was used to detect anxiolytic activity of a compound of formula (I) because anxiolytics increase punished drinking. In the test, rats were deprived of water for approximately 48 hours and were then placed individually into a transparent Plexiglas® enclosure (15×32×34 cm) with a floor consisting of stainless steel bars (0.4 cm) spaced 1 cm apart. The back wall of the enclosure was made of opaque Plexiglas® thereby concealing the observer from the experimental animal. In the center of the opposite wall, 5 cm above the floor, a metal water spout protruded into the cage and was connected to one pole of a shock generator (Apelex: Type 011346). The other pole of the shock generator was connected to the metal grid floor.
The rat was left to explore until it found the water spout. Then, every time it drank, it received a slight electric shock (1.7 mA, 1 s) 2 seconds after it started lapping. The number of punished drinks was counted during a 3 minute test. The test was performed blind with 10 rats per group. Testing included multiple tests using reference compounds and a compound of formula (I) that were prepared and administered as described below in the LES test. Male Rj: Wistar (Hans) rats as described therein were used after acclimatization conditions were achieved. Data was analyzed by comparing treated groups with appropriate controls using unpaired Student's t tests.

Test [4] concerns the target T2, human metabotropic glutamate receptor 5 (hmGluR5) (Homo sapiens, UniProt P41594).
T2 construct: expressed in transfected cells
In words: Calcium mobilization (FLIPR) assay for negative allosteric modulation, EC80 glutamate, hmGluR5 in HEK 293. It counts as cell-based. Particulars: HEK293; hmGluR5, inhibition of EC80 glutamate response; read-out: FLIPR maximum inhibition. In a few lines: as §1

A further test concerns C57BL/6NTac mice. To be noted: three weeks treatment, cited from earlier work.

T1 sequence (P31424 21-1203): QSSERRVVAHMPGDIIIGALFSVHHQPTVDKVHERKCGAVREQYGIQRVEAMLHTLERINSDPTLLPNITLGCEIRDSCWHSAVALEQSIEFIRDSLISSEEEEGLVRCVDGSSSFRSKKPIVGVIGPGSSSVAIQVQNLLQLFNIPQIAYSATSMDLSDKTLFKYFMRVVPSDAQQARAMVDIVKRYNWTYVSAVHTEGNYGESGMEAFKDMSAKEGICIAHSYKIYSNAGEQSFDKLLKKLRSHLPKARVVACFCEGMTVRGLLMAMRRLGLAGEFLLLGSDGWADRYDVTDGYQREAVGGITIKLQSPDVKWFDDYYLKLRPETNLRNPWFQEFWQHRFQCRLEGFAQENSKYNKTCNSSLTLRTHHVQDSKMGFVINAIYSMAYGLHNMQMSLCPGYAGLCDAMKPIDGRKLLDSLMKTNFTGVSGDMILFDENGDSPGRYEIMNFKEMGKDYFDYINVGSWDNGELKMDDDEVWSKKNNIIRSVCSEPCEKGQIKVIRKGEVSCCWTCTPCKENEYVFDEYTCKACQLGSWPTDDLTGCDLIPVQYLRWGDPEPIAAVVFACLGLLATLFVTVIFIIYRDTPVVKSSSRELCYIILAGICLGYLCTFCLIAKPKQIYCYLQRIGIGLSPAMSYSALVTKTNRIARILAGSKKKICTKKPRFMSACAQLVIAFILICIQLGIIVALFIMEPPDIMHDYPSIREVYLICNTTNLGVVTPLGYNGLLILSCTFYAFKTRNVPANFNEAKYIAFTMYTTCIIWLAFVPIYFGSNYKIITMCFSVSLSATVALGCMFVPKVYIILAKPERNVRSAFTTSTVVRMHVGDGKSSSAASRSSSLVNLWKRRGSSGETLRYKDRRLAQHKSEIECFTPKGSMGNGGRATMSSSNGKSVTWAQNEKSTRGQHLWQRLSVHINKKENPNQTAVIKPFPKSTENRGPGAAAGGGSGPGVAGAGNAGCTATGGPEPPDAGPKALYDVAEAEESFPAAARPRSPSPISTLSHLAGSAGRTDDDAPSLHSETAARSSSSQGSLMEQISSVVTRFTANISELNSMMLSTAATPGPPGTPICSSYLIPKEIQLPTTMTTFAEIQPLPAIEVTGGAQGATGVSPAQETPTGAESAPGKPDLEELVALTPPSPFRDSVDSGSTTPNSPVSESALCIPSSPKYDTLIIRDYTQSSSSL
mGluR5 (allosteric site, [3H]MPEP), sequence (P41594 21-1212): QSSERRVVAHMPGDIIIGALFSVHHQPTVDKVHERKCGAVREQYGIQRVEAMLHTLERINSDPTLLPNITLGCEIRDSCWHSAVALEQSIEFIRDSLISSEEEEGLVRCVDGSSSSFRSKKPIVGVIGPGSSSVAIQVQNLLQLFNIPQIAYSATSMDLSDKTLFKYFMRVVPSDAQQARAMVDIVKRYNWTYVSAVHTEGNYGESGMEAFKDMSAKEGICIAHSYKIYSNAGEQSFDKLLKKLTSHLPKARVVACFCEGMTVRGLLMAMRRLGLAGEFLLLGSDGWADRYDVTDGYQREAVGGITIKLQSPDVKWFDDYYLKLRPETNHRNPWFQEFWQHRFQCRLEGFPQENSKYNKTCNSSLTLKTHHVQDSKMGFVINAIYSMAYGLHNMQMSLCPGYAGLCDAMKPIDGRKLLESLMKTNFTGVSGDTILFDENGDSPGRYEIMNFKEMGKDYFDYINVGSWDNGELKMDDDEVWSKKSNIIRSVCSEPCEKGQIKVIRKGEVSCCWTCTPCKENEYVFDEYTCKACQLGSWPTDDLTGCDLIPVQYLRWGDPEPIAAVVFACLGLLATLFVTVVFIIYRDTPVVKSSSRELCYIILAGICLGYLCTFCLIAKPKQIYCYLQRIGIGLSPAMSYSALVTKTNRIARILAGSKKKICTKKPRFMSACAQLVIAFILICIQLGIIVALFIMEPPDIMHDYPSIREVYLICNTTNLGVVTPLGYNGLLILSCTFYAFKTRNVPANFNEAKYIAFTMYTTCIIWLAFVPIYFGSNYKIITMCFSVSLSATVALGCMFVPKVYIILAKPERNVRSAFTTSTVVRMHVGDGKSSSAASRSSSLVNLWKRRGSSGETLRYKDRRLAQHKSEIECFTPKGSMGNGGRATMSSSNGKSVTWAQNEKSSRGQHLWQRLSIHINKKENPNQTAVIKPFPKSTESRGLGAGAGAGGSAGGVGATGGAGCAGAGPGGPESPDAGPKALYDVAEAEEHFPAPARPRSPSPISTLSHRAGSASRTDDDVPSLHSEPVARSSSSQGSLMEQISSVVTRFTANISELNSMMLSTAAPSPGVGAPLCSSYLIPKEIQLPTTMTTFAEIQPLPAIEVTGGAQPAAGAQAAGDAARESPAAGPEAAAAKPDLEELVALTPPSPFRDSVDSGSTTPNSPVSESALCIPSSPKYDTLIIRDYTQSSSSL
T2 sequence (P41594 21-1212): as above

`O=C(N[C@H]1CCC[C@]2(CCN(c3cccc(Cl)c3)C2=O)C1)c1ccccn1` (racemic) [Example 2, cis-pyridine-2-carboxylic acid [2-(3-chloro-phenyl)-1-oxo-2-aza-spiro[4.5]dec-7-yl]-amide] showed a Ki in test [1] of 250 nM. In addition, the Emax in test [2] was in the range of 81 to 99%.
Regarding `Cc1cccc(C(=O)N[C@H]2CCC[C@]3(CCN(c4cccc(Cl)c4)C3=O)C2)n1` (relative stereo) [Example 4, cis-6-Methyl-pyridine-2-carboxylic acid [2-(3-chloro-phenyl)-1-oxo-2-aza-spiro[4.5]dec-7-yl]-amide], the Ki in test [1] came out at 74 nM. In addition, the Emax in test [2] is 81 to 99%.
Consider `Cc1cccc(C(=O)N[C@H]2CCC[C@]3(CCN(c4cccc(C)n4)C3=O)C2)n1` (relative stereo) [Example 23, cis-6-Methyl-pyridine-2-carboxylic acid [2-(6-methyl-pyridin-2-yl)-1-oxo-2-aza-spiro[4.5]dec-7-yl]-amide], for which, in test [1], affinity was put at a Ki of 190 nM. In addition, the Emax in test [2] is 81 to 99%.
`O=C(N[C@H]1CCC[C@]2(CCN(c3cc(F)cc(F)c3)C2=O)C1)c1cnccn1` (relative stereo) [Example 56, cis-Pyrazine-2-carboxylic acid [2-(3,5-difluoro-phenyl)-1-oxo-2-aza-spiro [4.5]dec-7-yl]-amide]: in test [2], the Emax lay in the range of 81 to 99%.
Regarding `Cc1nccc(C(=O)N[C@H]2CCC[C@]3(CCN(c4ccc(F)cn4)C3=O)C2)n1` (relative stereo) [Example 57, cis-2-Methyl-pyrimidine-4-carboxylic acid [2-(5-fluoro-pyridin-2-yl)-1-oxo-2-aza-spiro [4.5]dec-7-yl]-amide], in test [2], the Emax was 81 to 99%.
Turning to `O=C(N[C@@H]1CCC[C@@]2(CCN(c3cccc(Cl)c3)C2=O)C1)c1ccccn1` (single isomer, unassigned) [Example 5], the affinity in test [1] corresponds to a Ki of 95 nM. Moreover, the Emax in test [2] lay within 81 to 99%. For the same compound, in the test with male CD1 mice, the “in vivo anxiolytic effect in mouse marble burying” value is “statistically significant in vivo anxiolytic effect”.
In the case of `O=C(N[C@H]1CCC[C@]2(CCN(c3cccc(Cl)c3)C2=O)C1)c1ccccn1` (single isomer, unassigned) [Example 6], the Emax in test [2] lay in the range of 81 to 99%.
Still for that read-out and setting: the result for `O=C(N[C@H]1CCC[C@@]2(CCN(c3cccc(Cl)c3)C2=O)C1)c1ccccn1` [Example 1, trans-Pyridine-2-carboxylic acid [2-(3-chloro-phenyl)-1-oxo-2-aza-spiro[4.5]dec-7-yl]amide] reads 81 to 99%; that for `Cc1cccc(N2CCC3(CCCC(NC(=O)c4cccc(Cl)c4)C3)C2=O)n1` (stereo not drawn) [Example 8, 3-Chloro-N-[2-(6-methyl-pyridin-2-yl)-1-oxo-2-aza-spiro[4.5]dec-7-yl]-benzamide], 81 to 99%.
Regarding `O=C(N[C@@H]1CCC[C@@]2(CCN(c3cccc(F)c3)C2=O)C1)c1ccccn1` [Example 25, Pyridine-2-carboxylic acid [(5R,7R)-2-(3-fluoro-phenyl)-1-oxo-2-aza-spiro [4.5]dec-7-yl]-amide], the Ki in test [1] is 130 nM. The Emax in test [2] lay within 81 to 99%. In addition, the “activity in the Vogel Conflict Test” value in test [3] (30 mpk (p.o.)) is “significant activity”.
Take `Cc1cccc(N2CC[C@@]3(CCC[C@@H](NC(=O)c4cccc(F)c4)C3)C2=O)n1` [Example 28, 3-Fluoro-N-[(5R,7R)-2-(6-methyl-pyridin-2-yl)-1-oxo-2-aza-spiro[4.5]dec-7-yl]-benzamide]: the Emax in test [2] lay within 81 to 99%.
As for `Cc1cccc(C(=O)N[C@H]2CCC[C@]3(CCN(c4ccccn4)C3=O)C2)n1` [Example 45, 6-Methyl-pyridine-2-carboxylic acid (1-oxo-2-pyridin-2-yl-2-aza-spiro[4.5]dec-7-yl)-amide], in test [2], the Emax fell in the range of 81 to 99%.
As for `Cc1nccc(C(=O)N[C@@H]2CCC[C@@]3(CCN(c4cc(F)cc(F)c4)C3=O)C2)n1` [Example 82, 2-Methyl-pyrimidine-4-carboxylic acid [(5R,7R)-2-(3,5-difluoro-phenyl)-1-oxo-2-aza-spiro[4.5]dec-7-yl]-amide], in test [4], the Emax lay in the range of 73 to 95%. Also, in test [3] (10 mpk (p.o.)), the “activity in the Vogel Conflict Test” value was “significant activity”.
`Cc1nccc(N2CC[C@@]3(CCC[C@@H](NC(=O)c4cccc(F)c4)C3)C2=O)n1` [Example 147, 3-Fluoro-N-[(5R,7R)-2-(2-methyl-pyrimidin-4-yl)-1-oxo-2-aza-spiro[4.5]dec-7-yl]-benzamide]: in test [4], the Emax lay in the range of 47 to 93%. Further, the “activity in the Vogel Conflict Test” value in test [3] (3 mpk (p.o.)), in test [3] (10 mpk (p.o.)) and in test [3] (30 mpk (p.o.)) was “significant activity” each time.
As to `CNCCC(Oc1ccc(C(F)(F)F)cc1)c1ccccc1` (stereo not drawn) [fluoxetine], the “effect on anxiety- and depression-like effects of seven weeks corticosterone in the OF, NSF and FST” value in the test with C57BL/6NTac mice (18 mg/kg/day ip) was “reversed the anxiety- and depression-like effects”.
As for `CN(C)CCCN1c2ccccc2CCc2ccccc21` [imipramine], the “effect on anxiety- and depression-like effects of seven weeks corticosterone in the OF, NSF and FST” value in the test with C57BL/6NTac mice (40 mg/kg/day ip) was “reversed the anxiety- and depression-like effects”.

Source of the values: patent US9359297B2, “Spirolactam derivatives and uses of same” (H. Lundbeck A/S, priority 2009, dated 2016).
